Measurements taken from PubChem BioAssay (NCI).
Several values for one entry are separate records, joined by “and”; a condition that tells them apart may be missing. Identical values can stand only once.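 Growth conditions: 96-well plates. Treatment: test compound, 48 hours, 5 concentrations. Analysis: linear interpolation between bracketing concentrations; unreached endpoints set to highest concentration. GI50 = concentration required for 50% inhibition of growth. TGI denotes the concentration required for complete inhibition of growth.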

Test system: MDA-MB-468 breast
Experiment: growth of human tumour cells (NCI), 48 h

Structure (SMILES)	GI50	TGI
C=C(C)[C@@H]1CC[C@]2(CO)CC[C@]3(C)[C@H](CC[C@@H]4[C@@]5(C)CC[C@H](NCO)C(C)(C)[C@@H]5CC[C@]43C)[C@@H]12	854 nM	1.71 µM
COc1cc(Cn2c(-c3ccccc3)cc3c2-c2oncc2CC3)cc(OC)c1	211 nM	0.745 µM
O=C(NOCCO)c1cc(CN2OCCCC2=O)c(F)c(F)c1Nc1ccc(I)cc1F	14200 nM and > 10000 nM	66.7 µM and > 10 µM
O=C(Nc1nc2ccccc2s1)c1cc(-c2ccc(F)cc2)n2nc(-c3ccccc3)cc2n1	5180 nM	36 µM
O=C(/C=C/c1cccc2ccccc12)Nc1ncc(Cc2ccccc2)s1	665 nM	> 24.9 µM
COc1ccc(C2=Nc3c/c(=C\c4c(O)[nH]c5cc(Cl)ccc45)ccc3=N2)cc1	3060 nM	10.4 µM
O=C(Nc1cccc(C(F)(F)F)c1)c1cc2ccccc2cc1O	2200 nM	> 51.6 µM
